Laboratory results published in PubChem BioAssay (NCI).
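All cell lines were grown in 96-well plates and treated with compound for 48 hours. TGI: total growth inhibition.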

Assays:
Experiment in all cases: NCI tumour cell line growth inhibition, 48 h
DLD-1 colon = tested on: DLD-1 colon
HCT-116 colon = tested on: HCT-116 colon
KM20L2 colon = tested on: KM20L2 colon
M19-MEL melanoma = tested on: M19-MEL melanoma
P388/ADR leukemia = tested on: P388/ADR leukemia
SF-295 CNS = tested on: SF-295 CNS
HOP-62 NSCLC = tested on: HOP-62 NSCLC
PC-3 prostate = tested on: PC-3 prostate

SMILES: CC1(C)N=C(N)N=C(N)N1c1ccc(CCc2ccccc2)cc1
- TGI (DLD-1 colon): > 100 µM
- TGI (HCT-116 colon): > 100 µM
- TGI (KM20L2 colon): > 100 µM
- TGI (M19-MEL melanoma): 38.7 µM
- TGI (P388/ADR leukemia): > 100 µM
- TGI (SF-295 CNS): > 100 µM

SMILES: O=c1cnn(C/C=C/CO)c(=O)[nH]1
- TGI (HOP-62 NSCLC): > 100 µM
- TGI (PC-3 prostate): > 100 µM
